# Calls of active or inactive are those of the source. The calls are words filed in the database; no cut-off is given here.
# Legend:
# Oryctolagus cuniculus [1] = experiment: Antiglaucoma activity in New Zealand albino rabbit assessed as reduction in intraocular pressure administered topically as eye drops measured after 4 hrs by pneumotonometer-analysis; assay type: functional
# Carbonic anhydrase 9 = Carbonic anhydrase 9 (Homo sapiens, UniProt Q16790)
# Description: Inhibition of human CA9 preincubated for 15 mins by phenol red dye based stopped flow CO2 hydration assay
# Carbonic anhydrase 12 = Carbonic anhydrase 12 (Homo sapiens, UniProt O43570)
# Description: Inhibition of human CA12 preincubated for 15 mins by phenol red dye based stopped flow CO2 hydration assay
# Oryctolagus cuniculus [2] = experiment: Antiglaucoma activity in New Zealand albino rabbit assessed as reduction in carbomer-induced intraocular pressure administered topically as eye drops measured at 60 mins post-drug administration by pneumotonometer-analysis; assay type: functional; conditions: 1 h
# Carbonic anhydrase 1 = Carbonic anhydrase 1 (Homo sapiens, UniProt P00915)
# Description: Inhibition of human CA1 preincubated for 15 mins by phenol red dye based stopped flow CO2 hydration assay
# Oryctolagus cuniculus [3] = experiment: Antiglaucoma activity in New Zealand albino rabbit assessed as reduction in carbomer-induced intraocular pressure administered topically as eye drops measured at 60 to 120 mins post administration by pneumotonometer-analysis; assay type: functional; conditions: time 60-120 min
# Oryctolagus cuniculus [4] = experiment: Antiglaucoma activity in New Zealand albino rabbit assessed as reduction in carbomer-induced intraocular pressure administered topically as eye drops measured at 240 mins post-drug administration by pneumotonometer-analysis; assay type: functional; conditions: 4 h
# Carbonic anhydrase 1, sequence (P00915 whole entry): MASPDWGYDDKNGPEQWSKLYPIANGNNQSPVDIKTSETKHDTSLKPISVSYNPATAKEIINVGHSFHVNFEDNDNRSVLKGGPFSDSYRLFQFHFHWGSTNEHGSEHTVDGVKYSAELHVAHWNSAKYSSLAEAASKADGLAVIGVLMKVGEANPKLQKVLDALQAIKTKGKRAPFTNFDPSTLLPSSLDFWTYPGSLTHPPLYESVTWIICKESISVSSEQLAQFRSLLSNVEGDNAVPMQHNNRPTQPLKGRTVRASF
# Carbonic anhydrase 12, sequence (O43570 whole entry): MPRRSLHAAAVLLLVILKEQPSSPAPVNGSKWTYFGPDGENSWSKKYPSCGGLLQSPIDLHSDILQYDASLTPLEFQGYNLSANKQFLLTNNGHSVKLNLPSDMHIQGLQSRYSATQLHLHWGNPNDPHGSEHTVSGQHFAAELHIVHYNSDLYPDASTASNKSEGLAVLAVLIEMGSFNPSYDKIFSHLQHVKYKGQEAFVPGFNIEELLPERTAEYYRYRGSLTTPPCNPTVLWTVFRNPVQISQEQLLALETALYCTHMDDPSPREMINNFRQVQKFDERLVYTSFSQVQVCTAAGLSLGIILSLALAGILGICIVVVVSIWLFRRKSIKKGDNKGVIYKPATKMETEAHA
SMILES,Ki (Carbonic anhydrase 9) [nM],Ki (Carbonic anhydrase 12) [nM],Ki (Carbonic anhydrase 1) [nM],Activity (Oryctolagus cuniculus [1]),Activity (Oryctolagus cuniculus [2]) [mmHg],Activity (Oryctolagus cuniculus [3]),Activity (Oryctolagus cuniculus [4]) [mmHg]
CCC(C)NC(=O)Nc1ccc(S(N)(=O)=O)cc1 (stereo not given),507,637,669,–,–,–,–
COC(=O)C(CC(C)C)NC(=O)Nc1ccc(S(N)(=O)=O)cc1 (stereo not given),937,586,226,–,–,–,–
NS(=O)(=O)c1cccc(NC(=O)N2CCCCC2)c1,541,278,178,–,–,–,–
CCCCCCN(CCCCCC)C(=O)Nc1cccc(S(N)(=O)=O)c1,2110,–,–,–,–,–,–
CCN[C@H]1C[C@H](C)S(=O)(=O)c2sc(S(N)(=O)=O)cc21 [DORZOLAMIDE],–,–,–,24 mmHg,–,–,–
COC(=O)CC(NC(=O)Nc1cccc(S(N)(=O)=O)c1)C(=O)OC (stereo not given),860,–,8380,–,–,–,–
COC(=O)CNC(=O)Nc1ccc(S(N)(=O)=O)cc1,1920,–,–,–,–,–,–
COC(=O)CCCNC(=O)Nc1cccc(S(N)(=O)=O)c1,746,494,8280,–,–,–,–
COC(=O)CNC(=O)CNC(=O)Nc1cccc(S(N)(=O)=O)c1,691,344,7190,–,–,–,–
CC(C)NC(=O)Nc1ccc(S(N)(=O)=O)cc1,640,593,438,–,–,–,–
COC(=O)C(CCSC)NC(=O)Nc1cccc(S(N)(=O)=O)c1 (stereo not given),1380,426,1730,–,–,–,–
NS(=O)(=O)c1ccc(NC(=O)NCC(=O)NCC(=O)O)cc1,1570,426,7570,Active,–,Active,19
COC(=O)C(CC(C)C)NC(=O)Nc1cccc(S(N)(=O)=O)c1 (stereo not given),839,589,5280,–,–,–,–
COC(=O)CCC(NC(=O)Nc1ccc(S(N)(=O)=O)cc1)C(=O)OC (stereo not given),596,726,62,–,–,–,–

# Now from value to molecule, other results behind:
Ki (Carbonic anhydrase 9) [nM],Ki (Carbonic anhydrase 12) [nM],Ki (Carbonic anhydrase 1) [nM],SMILES,Activity (Oryctolagus cuniculus [1]),Activity (Oryctolagus cuniculus [2]) [mmHg],Activity (Oryctolagus cuniculus [3]),Activity (Oryctolagus cuniculus [4]) [mmHg]
126,42.6,62.3,COC(=O)[C@H](Cc1ccccc1)NC(=O)Nc1ccc(S(N)(=O)=O)cc1,27 mmHg,36,–,–
2170,612,–,CC(C)NC(=O)Nc1cccc(S(N)(=O)=O)c1,–,–,–,–
1790,–,–,CC(C)CN(CC(C)C)C(=O)Nc1cccc(S(N)(=O)=O)c1,–,–,–,–
943,275,809,COC(=O)C(Cc1ccccc1)NC(=O)Nc1cccc(S(N)(=O)=O)c1 (stereo not given),Active,–,16 mmHg,–
1400,705,483,CN(C)C(=O)Nc1ccc(S(N)(=O)=O)cc1,–,–,–,–
2090,–,–,CC(C)N(C(=O)Nc1cccc(S(N)(=O)=O)c1)C(C)C,–,–,–,–
2190,–,–,CCCN(CCC)C(=O)Nc1cccc(S(N)(=O)=O)c1,–,–,–,–
2120,600,69.9,CCC(C)NC(=O)Nc1cccc(S(N)(=O)=O)c1 (stereo not given),–,–,–,–
1600,490,2060,NS(=O)(=O)c1cccc(NC(=O)Nc2cccc(C(F)(F)F)c2)c1,–,–,–,–
1480,512,737,NS(=O)(=O)c1cccc(NC(=O)Nc2ccccc2F)c1,–,–,–,–
1800,356,449,NS(=O)(=O)c1cccc(NC(=O)Nc2ccccc2)c1,–,–,–,–
1330,487,296,NS(=O)(=O)c1cccc(NC(=O)NCCc2ccccc2)c1,–,–,–,–
1730,375,2880,CCN(CC)C(=O)Nc1cccc(S(N)(=O)=O)c1,–,–,–,–
1180,–,–,CN(CCc1ccccc1)C(=O)Nc1cccc(S(N)(=O)=O)c1,–,–,–,–
1440,–,–,CN(Cc1ccccc1)C(=O)Nc1cccc(S(N)(=O)=O)c1,Active,–,11 mmHg,–
825,–,6070,COC(=O)CNC(=O)Nc1cccc(S(N)(=O)=O)c1,–,–,–,–
